Results taken from patent US11351145B2, “Quercetin-based composition for treating rhinosinusitis” (APHABIO THERAPEUTICS, priority 2017, dated 2022).
Marks after values point to notes of the source that are not given here.

Assays:
Type in all cases: in vivo, rabbit
[1] = system: rhinosinusitis induced by lipopolysaccharide (LPS); experiment: Histological scoring of sino-nasal inflammation (score 0-3) in rabbits with LPS-induced rhinosinusitis; conditions: for Overall therapeutic effect / activity against rhinosinusitis: conclusion of the histological examination, compared to non-treated or placebo-treated animals; for Epithelial desquamation / Mucous gland damage: score 0-3 (0 absence of damage, 1 slightly, 2 moderately, 3 strongly damaged); for Epithelial desquamation / Mucous gland damage / Leukocyte infiltrate of mucous membrane / Mononuclear infiltrate of mucous membrane: median (1st; 3rd quartile), n = 6; for Epithelial desquamation / Mucous gland damage / Leukocyte infiltrate of mucous membrane / Mononuclear infiltrate of mucous membrane / Inflammation degree in different zones: Olfactory region / Inflammation degree in different zones: Respiratory region / Inflammation degree in different zones: Vestibule / Inflammation type: Post-inflammatory hyperplasia of goblet cells / Inflammation type: acute catarrhal rhinosinusitis / Inflammation type: acute purulent rhinosinusitis: intranasal once daily for seven days; for Leukocyte infiltrate of mucous membrane / Mononuclear infiltrate of mucous membrane: score 0-3 (0 none, 1: 1 to 5, 2: 6 to 10, 3: more than 10 cells in the zone); for Inflammation degree in different zones: Olfactory region / Inflammation degree in different zones: Respiratory region / Inflammation degree in different zones: Vestibule / Inflammation type: Post-inflammatory hyperplasia of goblet cells / Inflammation type: acute catarrhal rhinosinusitis / Inflammation type: acute purulent rhinosinusitis: scoring from 0 to 3, median (quartiles)
Method: (§1) 42 male rabbits were used in this study. Animals were separated into seven groups, each containing six rabbits. The 1st group served as an untreated control, the second group was treated with a 0.9% NaCl solution, and five experimental groups were used to test the different formulations: onion peel extract, quercetin+2-(3,4-dihydroxybenzoyl)-2,4,6-trihydroxy-3(2H)-benzofuranone quercetin, quercetin-4′-glycoside and protocatechuic acid.
(§2) Rhinosinusitis was induced by introduction of 100 μL of 1% lipopoysaccharide (LPS) in each nasal cavity of the rabbits for three days (Dong-Hyun Kim et all, 2011).
(§3) The following concentrations of composition were tested:
(§4) onion peel water extract—1 mg/mL;
(§5) the mixture of quercetin—0.009 mg/mL and 2-(3,4-dihydroxybenzoyl)-2,4,6-trihydroxy-3(2H)-benzofuranone—0.001 mg/mL;
(§6) quercetin-4′-glycoside—0.25 mg/mL;
(§7) protocatechuic acid—0.25 mg/mL.
(§8) The compounds were diluted in solutions of 0.9-1% sodium chloride or in the solution containing 0.75% NaCl+0.25% NaHCO3 heated to 37° C. before administration. Except for the mixture of quercetin+2-(3,4-dihydroxybenzoyl)-2,4,6-trihydroxy-3(2H)-benzofuranone, which was suspension, all formulations were slightly opalescent-colored solutions.
(§9) 2 mL of the solutions was administered intranasally in each nasal cavity once daily for seven days. In order to get the maximal contact of nasal cavity with the tested substances, rabbits were kept in the “head down” position during administration.
(§10) The day after the last administration of the substances, animals were sacrificed by an overdose of a general anesthetics: Zoletil (Virbac, France) and Rometar (Bioveta, Czech Republic).
(§11) After macroscopic examinations, the nasal parts of rabbits' heads were fixed in 10% formaldehyde for 24 hours, then decalcified for 14 days in a hydrochloric acid/water (25:1) solution. Then, the noses of the animals were sectioned transversally at four levels: A—at the incisors; B— in a zone posterior to the incisors, C— at the second palatal ridge, and D—at the first premolar tooth. Tissues were then washed with water for 12 hours and embedded in paraffin using conventional methods. Histological sections of 3-5 μm were prepared from these tissues using microtome. In order to examine goblet cells and their glucosamine content, the tissue sections were stained with alcian blue at pH 2.5. Some tissue sections were re-stained with haematoxylin and eosin for further histological examinations.
(§12) Morphological investigation of histological preparations was performed using optical microscope CarlZeissAxioScopeA1 (Germany) at magnifications of 25×, 50×, 100×, 200× and 400×. Microphotographs of samples were taken using a digital camera AxioCamlCc 1 and AxioVisionRel.4.8 software (Germany). Morphometric measurements were taken using AxioVisionRel.4.8 software (Germany).
The appearance, severity of acute catarrhal rhinosinusitis, acute purulent rhinosinusitis and occurrence of post-inflammatory hyperplasia of goblet cells were evaluated by examining the degree of inflammatory lesions in various zones: vestibule, respiratory region, olfactory region and paranasal sinuses.
The degree of epithelial desquamation and mucociliary gland damage was scored along a scale from 0 to 3, where:
The degree of mononuclear and leukocyte cell infiltration was evaluated by scoring from 0 to 3, where:
0—no mononuclear cells present in the zone of examination;
1—1 to 5 mononuclear cells present in the zone of examination;
2—6 to 10 mononuclear cells present in the zone of examination;
3—more than 10 mononuclear cells present in the zone of examination.
All data were analyzed using descriptive statistics. The normality of data distribution was verified by Shapiro-Wilks test. In the case of normality, the mean and the standard error of the mean (s.e.m) were calculated and presented in tables together with n (number of values). […] The differences between groups were analyzed using parametric or non-parametric tests depending on the distribution type. […]

[2] = system: rhinosinusitis induced by lipopolysaccharide (LPS); experiment: Goblet cell morphometric study (alcian blue staining) in rabbits with LPS-induced rhinosinusitis; conditions: for Number of alcian positive cells on 1 mm of epithelium / Number of goblet cells on 1 mm of epithelium / Ratio of alcian positive cells to total number of goblet cells, in %: rabbits, 2 mL intranasally in each nasal cavity once daily for seven days, M ± s.e.m., n = 6
Method: as §1, §2, §3, §4, §5, §6, §7, §8, §9, §10, §11, §12
Goblet cells were counted within 1 mm of the respiratory zone of the epithelium.
All data were analyzed using descriptive statistics. The normality of data distribution was verified by Shapiro-Wilks test. In the case of normality, the mean and the standard error of the mean (s.e.m) were calculated and presented in tables together with n (number of values). […] The differences between groups were analyzed using parametric or non-parametric tests depending on the distribution type. The analysis of normally distributed data was done using the unifactorial dispersion analysis test (ANOVA), and further post-hoc analysis was done using Tukey's method. The data not corresponding to the normal distribution were analyzed using the non-parametric Kruskal-Wallis test, and the differences between groups were analyzed using the Mann-Whitney test. The difference was determined at a significance level of 0.05.

[3] = system: rhinosinusitis induced by lipopolysaccharide (LPS); experiment: Visual (macroscopic) examination of rabbits with LPS-induced rhinosinusitis; conditions: in words; after seven days of treatment
Method: as §1, §2, §8, §9
The nasal cavities of the animals were subjected to visual examinations immediately after euthanasia.

SMILES: O=C(O)c1ccc(O)c(O)c1 [Protocatechuic acid, protocatechuic acid]
- Leucocyte cell infiltration of the mucous membranes versus control group ([1]; in words, Kruskal-Wallis and Mann-Whitney tests): lower than in control group
- Overall therapeutic effect / activity against rhinosinusitis ([1]; in words): moderate activity
- Epithelial desquamation [1]: 0.0(0.0; 1.0) score
- Mucous gland damage [1]: 1.0(0.0; 1.0) score
- Leukocyte infiltrate of mucous membrane [1]: 0.5(0.0; 1.0)* score
- Mononuclear infiltrate of mucous membrane [1]: 1.0 (1.0; 1.0) score
- Inflammation degree in different zones: Olfactory region [1]: 1.0
- Inflammation degree in different zones: Respiratory region [1]: 1.0
- Inflammation degree in different zones: Vestibule [1]: 0.0
- Inflammation type: Post-inflammatory hyperplasia of goblet cells [1]: 0.5
- Inflammation type: acute catarrhal rhinosinusitis [1]: 1.0
- Inflammation type: acute purulent rhinosinusitis [1]: 0.0
- Number of alcian positive cells on 1 mm of epithelium [2]: 16.3 ± 5.82
- Number of goblet cells on 1 mm of epithelium [2]: 44.0 ± 6.76
- Ratio of alcian positive cells to total number of goblet cells, in % [2]: 35.0 ± 9.01%
- Macroscopic (visual) examination findings [3]: No external changes were observed

SMILES: O=c1c(O)c(-c2ccc(O)c(O)c2)oc2cc(O)cc(O)c12 [Quercetin, quercetin]
- Acute purulent rhinosinusitis (observation) ([1]; in words): no sign
- Post-inflammatory hyperplasia of the goblet cells (observation) ([1]; in words): no sign
- Epithelial desquamation [1]: 0.5(0.0; 1.0) score
- Mucous gland damage [1]: 0.5(0.0; 2.0) score
- Leukocyte infiltrate of mucous membrane [1]: 2.0(2.0; 2.0) score
- Mononuclear infiltrate of mucous membrane [1]: 1.0 (1.0; 1.0) score
- Inflammation degree in different zones: Olfactory region [1]: 1.0
- Inflammation degree in different zones: Respiratory region [1]: 2.0
- Inflammation degree in different zones: Vestibule [1]: 0.0
- Inflammation type: Post-inflammatory hyperplasia of goblet cells [1]: 0.0
- Inflammation type: acute catarrhal rhinosinusitis [1]: 2.0
- Inflammation type: acute purulent rhinosinusitis [1]: 0.0
- Number of alcian positive cells on 1 mm of epithelium [2]: 21.3 ± 6.49
- Number of goblet cells on 1 mm of epithelium [2]: 43.0 ± 6.46
- Ratio of alcian positive cells to total number of goblet cells, in % [2]: 47.2 ± 12.33%
- Macroscopic (visual) examination findings [3]: No external changes were observed

SMILES: O=c1c(O)c(-c2ccc(O[C@@H]3O[C@H](CO)[C@@H](O)[C@H](O)[C@H]3O)c(O)c2)oc2cc(O)cc(O)c12 [Quercetin-4′-glycoside, quercetin-4′-glycoside]
- Epithelial desquamation (observation) ([1]; in words): not observed
- Overall therapeutic effect / activity against rhinosinusitis ([1]; in words): moderate activity
- Epithelial desquamation [1]: 0.0(0.0; 0.0)* score
- Mucous gland damage [1]: 0.0(0.0; 1.0) score
- Leukocyte infiltrate of mucous membrane [1]: 1.0(1.0; 2.0) score
- Mononuclear infiltrate of mucous membrane [1]: 1.0 (1.0; 1.0) score
- Inflammation degree in different zones: Olfactory region [1]: 0.5
- Inflammation degree in different zones: Respiratory region [1]: 1.0
- Inflammation degree in different zones: Vestibule [1]: 0.0
- Inflammation type: Post-inflammatory hyperplasia of goblet cells [1]: 1.0
- Inflammation type: acute catarrhal rhinosinusitis [1]: 1.0
- Inflammation type: acute purulent rhinosinusitis [1]: 0.0
- Change in the number of goblet cells on 1 mm of epithelium compared to control ([2]; in words, ANOVA and Tukey's test): Increase
- Number of alcian positive cells on 1 mm of epithelium [2]: 21.8 ± 6.78
- Number of goblet cells on 1 mm of epithelium [2]: 65.6 ± 6.03
- Ratio of alcian positive cells to total number of goblet cells, in % [2]: 35.8 ± 11.13%
- Macroscopic (visual) examination findings [3]: No external changes were observed
